Assays:
[1] = system: APP mRNA; assay: qRT-PCR of APP mRNA under ASO treatment; format: cell-based, human
Source text: (§1) FIG. 7A. Schematic diagram of the designing of anti-circAβ-a-ASO. FIG. 7B. β-amyloid circular ribonucleic acid qRT-PCR results under ASO treatment; BE-Aβ represents the plasmid overexpressing circAβ-a using pCircRNA-BE vector; DMo-Aβ represents the overexpression using pCircRNA-DMo vector circAβ-a plasmid; Scr. ASO means negative control experiment ASO. FIG. 7C. qRT-PCR results of APP mRNA under ASO treatment.
(§2) In this example, the specific antisense oligonucleotide (ASO) against β-amyloid cyclic ribonucleic acid (circAβ) is used to inhibit and degrade circAβ to prevent and treat Alzheimer's disease. As shown in FIGS. 7A-7C, the level of the circular RNA in the cell is reduced by antisense oligonucleotides (anti-circAβ-a-ASO) against β-amyloid cyclic ribonucleic acid-a (circAβ-a). The APP mRNA was not affected (FIG. 7C). As shown in the figure, antisense oligonucleotides containing SEQ ID No. 41-57 anti-amyloid cyclic ribonucleic acid (circAβ). Antisense oligonucleotides recognize β-amyloid circular ribonucleic acid through base complementary pairing. Antisense oligonucleotides that bind target RNA can degrade target RNA by activating RNase H enzyme activity (FIGS. 7A-7C). Antisense oligonucleotides can also regulate (such as inhibit) protein translation by binding to target RNA.

[2] = system: circAβ-a; assay: qRT-PCR of circAβ-a under ASO treatment; format: cell-based, human; conditions: cells overexpressing circAβ-a, vs Scr. ASO
Source text: as §1, §2

Sequence: AAGCAGCTCATCTCCACCACAC (listed as DNA, chemistry not given here) [anti-circAβ-a-ASO, antisense oligonucleotide against circAβ-a]
- APP mRNA level [1]: not affected
- level of circAβ-a in cells [2]: reduced
